Measurements as given in ChEMBL document CHEMBL1201862, “PubChem BioAssay data set” (2004).
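Method: 48-hour compound exposure of cells in 96-well plates, five concentrations, linear interpolation of endpoints. Here, GI50 denotes the concentration required for 50% inhibition of growth.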 The source made the active and inactive calls. No stated cut-off is given here; in the data, active = GI50 up to about 1.1 µM and inactive = higher.

How the values were obtained:
Test in all cases: NCI tumour cell line growth inhibition, 48 h
SNB-78 = test system: SNB-78
HOP-18 = test system: HOP-18
DMS-273 = test system: DMS-273
DLD-1 = test system: DLD-1
LXFL 529 = test system: LXFL 529
M19-MEL = test system: M19-MEL
XF498 = test system: XF498
KM-20L2 = test system: KM-20L2
RXF 631 = test system: RXF 631

Measured: GI50

C=C(Br)C(C)(Cl)CCC(Br)C(C)(C)Br (configuration not stated)
inactive: SNB-78 > 100 µM | HOP-18 > 100 µM | DMS-273 39.4 µM | DLD-1 91.8 µM | LXFL 529 83 µM | M19-MEL 34 µM

CC(=O)O/N=C/c1ncccc1CO
inactive: HOP-18 > 100 µM | XF498 > 100 µM | KM-20L2 > 100 µM | DMS-273 > 100 µM | RXF 631 > 100 µM | DLD-1 > 100 µM | LXFL 529 > 100 µM | M19-MEL > 100 µM

CCOC(=N)/C(=C1\OC(=N)C(c2ccc(Cl)cc2)=C1O)c1ccc(Cl)cc1
inactive: SNB-78 25.6 µM | HOP-18 19 µM | XF498 11.4 µM | KM-20L2 18.5 µM | DMS-273 14.7 µM | RXF 631 25.2 µM | DLD-1 15.2 µM | LXFL 529 14.7 µM | M19-MEL 16.9 µM

O=C(N/C(=C\c1ccc(/C=C(\NC(=O)c2ccccc2)c2nc3c(O)nc(S)nc3[nH]2)cc1)c1nc2c(O)nc(S)nc2[nH]1)c1ccccc1
inactive: SNB-78 > 100 µM | HOP-18 > 100 µM | XF498 > 100 µM | KM-20L2 > 100 µM | DMS-273 > 100 µM | RXF 631 62.4 µM | DLD-1 64.9 µM | LXFL 529 35.9 µM

O=C(Nc1c(O)[nH]c(=S)[nH]c1=O)c1ccco1
inactive: SNB-78 > 100 µM | HOP-18 > 100 µM | KM-20L2 > 100 µM | LXFL 529 > 100 µM | M19-MEL > 100 µM

COc1cc(C(C)O)c[n+](CCC2CNc3ccccc32)c1 (configuration not stated)
inactive: XF498 > 100 µM | KM-20L2 43 µM | DMS-273 > 100 µM | DLD-1 > 100 µM | LXFL 529 > 100 µM | M19-MEL > 100 µM

Cc1ccc(S(=O)(=O)OCC23CCC(C2)C2CC23)cc1 (configuration not stated)
inactive: HOP-18 > 100 µM | KM-20L2 > 100 µM | DMS-273 > 100 µM | DLD-1 > 100 µM | LXFL 529 > 100 µM | M19-MEL > 100 µM

Cc1ccc(NC(=O)CCc2nc(N)nc(N)c2-c2ccccc2)cc1C
inactive: SNB-78 > 100 µM | HOP-18 > 100 µM | XF498 > 100 µM | KM-20L2 > 100 µM | DMS-273 > 100 µM | RXF 631 > 100 µM | DLD-1 > 100 µM | LXFL 529 > 100 µM | M19-MEL > 100 µM

COc1cc2nc(NCCCCCNC(=O)c3ccco3)nc(N)c2cc1OC
inactive: SNB-78 28.2 µM | HOP-18 > 100 µM | KM-20L2 32.4 µM | DMS-273 49.9 µM | RXF 631 26.1 µM | M19-MEL 23 µM

O=C(C[n+]1ccccc1)N/N=C(/CCC(=O)N(Cc1ccccc1)Cc1ccccc1)CC(=O)c1ccccc1
inactive: SNB-78 > 100 µM | HOP-18 > 100 µM | KM-20L2 > 100 µM | DMS-273 > 100 µM | RXF 631 > 100 µM | DLD-1 > 100 µM | LXFL 529 > 100 µM | M19-MEL > 100 µM

O=[N+]([O-])c1ccccc1/C=N/C12CC3CC(CC(C3)C1)C2
inactive: SNB-78 47.1 µM | HOP-18 > 100 µM | XF498 > 100 µM | KM-20L2 51.1 µM | DMS-273 34.6 µM | RXF 631 > 100 µM | DLD-1 36.4 µM | LXFL 529 45.5 µM | M19-MEL > 100 µM

CN(C)C(=O)c1ccc([N+](=O)[O-])cc1
inactive: SNB-78 > 100 µM | KM-20L2 > 100 µM | DMS-273 > 100 µM | DLD-1 > 100 µM | LXFL 529 > 100 µM | M19-MEL > 100 µM

CC(C)c1c2[nH]c3ccccc3c2c(C(C)C)c2[nH]c3ccccc3c12
inactive: SNB-78 > 100 µM | HOP-18 > 100 µM | XF498 > 100 µM | KM-20L2 17.6 µM | DMS-273 81.5 µM | RXF 631 > 100 µM | DLD-1 > 78.7 µM | LXFL 529 > 100 µM | M19-MEL > 100 µM

CC1(C)OC2CC3COC(=O)C3CC2O1 (configuration not stated)
inactive: SNB-78 > 100 µM | HOP-18 > 100 µM | KM-20L2 > 100 µM | DMS-273 > 100 µM | RXF 631 > 100 µM | DLD-1 > 100 µM | LXFL 529 > 100 µM | M19-MEL > 100 µM

Nc1ncnc2c1ncn2[C@]1(CO)C=C(CO)C(O)C1O (some centres not stated)
inactive: SNB-78 > 100 µM | HOP-18 > 100 µM | XF498 > 100 µM | KM-20L2 > 100 µM | DMS-273 > 100 µM | RXF 631 > 100 µM | DLD-1 > 100 µM | LXFL 529 > 100 µM

Nc1nc2c3c(ncn3CC(O)CO2)n1 (configuration not stated)
inactive: SNB-78 > 100 µM | HOP-18 > 100 µM | KM-20L2 > 100 µM | DMS-273 > 100 µM | RXF 631 > 100 µM | DLD-1 > 100 µM | LXFL 529 > 100 µM | M19-MEL 6.31 µM

Cc1cc(O)cc2oc(=O)c3c(O)cc(O)cc3c12 [ALTERNARIOL]
inactive: SNB-78 34.5 µM | HOP-18 26.8 µM | XF498 27.1 µM | KM-20L2 27.7 µM | DMS-273 23 µM | DLD-1 30.7 µM | LXFL 529 59.6 µM | M19-MEL 58.6 µM
